According to US11390621B2, “Chiral indole compounds and their use” (ARIAGEN, INC., priority 2019, dated 2022):
Values joined by “and” are separate entries in the source; they are usually repeats but may differ in a detail not shown here. Identical values can stand only once. Like-named read-outs stand apart in the source and are kept apart here. Marks after values point to notes of the source that are not given here.

Key:
[1] = system: 4T-1; assay: 4T-1 syngeneic mouse tumor model, ARI-164 / anti-PD-1 / combination (Example 49); type: in vivo; conditions: 4T-1 model
Description: (§1) In this example, the in vivo anti-tumor efficacy of a combination of ARI-164 with an anti-PD-1 antibody was evaluated using a panel of seven subcutaneous syngeneic mouse tumor models.
(§2) Seven subcutaneous syngeneic mouse tumor models were generated by innoculating female BALB/C or C57BL/6 mice with cancer cells at their right lower or right front flank followed by randomization as detailed in Table 10 below.
(§3) A solution of a rat monoclonal anti-mouse PD-1 antibody (isotype IgG2a, κ) at a concentration of 6.61 mg/ml was obtained from BioXcell (InVivoMAb anti-mouse PD-1 (CD279), Clone RMP1-14, Cat #BE0146)) and store at 4° C. The antibody solution was diluted with PBS to obtain a 1 mg/ml dosing solution.
(§4) ARI-164 powder was stored at −20° C. The powder of the compound was dissolved in DMSO to obtain dosing solutions at 26.7 mg/ml for administration to mice at 40 mg/kg, respectively.
Seven studies using the seven subcutaneous syngeneic mouse tumor models were performed. In each study, 80 mice were enrolled and randomly allocated to eight different study groups, with 10 mice in each study group. The mean tumor size at randomization was approximately 80-120 mm^3 (around 100 mm^3). Randomization was performed based on “Matched distribution” randomization method (StudyDirector™ software, version 3.1.399.19). […] All the drugs and vehicle controls were injected to the mice intraperitoneally.
(§5) The data was collected and analyzed as described above in Example 48.

[2] = system: EMT-6; assay: EMT-6 syngeneic mouse tumor model, ARI-164 / anti-PD-1 / combination (Example 49); type: in vivo; conditions: EMT-6 model
Description: as §1, §2, §3, §4
(§6) Seven studies using the seven subcutaneous syngeneic mouse tumor models were performed. In each study, 80 mice were enrolled and randomly allocated to eight different study groups, with 10 mice in each study group. The mean tumor size at randomization was approximately 80-120 mm^3 (around 100 mm^3). Randomization was performed based on “Matched distribution” randomization method (StudyDirector™ software, version 3.1.399.19). […]
as §5

[3] = system: A20; assay: A20 syngeneic mouse tumor model, ARI-164 / anti-PD-1 / combination (Example 49); type: in vivo
Description: as §1, §2, §3, §4, §6, §5

[4] = system: LL/2; assay: LL/2 syngeneic mouse tumor model, ARI-164 / anti-PD-1 / combination (Example 49); type: in vivo
Description: as §1, §2, §3, §4, §6, §5

[5] = system: MC38; assay: MC38 syngeneic mouse tumor model, ARI-164 / anti-PD-1 / combination (Example 49); type: in vivo
Description: as §1, §2, §3, §4, §6, §5

[6] = system: Pan02; assay: Pan02 syngeneic mouse tumor model, ARI-164 / anti-PD-1 / combination (Example 49); type: in vivo
Description: as §1, §2, §3, §4, §6, §5

[7] = system: H22; assay: H22 syngeneic mouse tumor model, ARI-164 / anti-PD-1 / combination (Example 49); type: in vivo
Description: as §1, §2, §3, §4, §6, §5

[8] = In vivo pharmacokinetic studies in mice; design: species or system Balb/C mice
[9] = intraperitoneal, anti-PD-1 10 mg/kg BIW, ARI-164 40 mg/kg QD
[10] = Balb/C, mouse, plasma, mice, single 40 mg/kg oral dose
[11] = Balb/C, mouse, plasma, mice, single 40 mg/kg oral dose, from mean profile
[12] = Balb/C, mouse, plasma, mice, read-out: half-life (converted)
[13] = mice, single 40 mg/kg oral dose, Mean
[14] = mice, single 40 mg/kg oral dose, individual mouse (M1-M3), 40 mg/kg
[15] = mice, single 40 mg/kg oral dose
[16] = mouse, plasma, Balb/C mice, single dose IP 40 mg/kg
[17] = mouse, plasma, Balb/C mice, single dose IV 5 mg/kg
[18] = mouse, plasma, Balb/C mice, single dose PO 10 mg/kg
[19] = mouse, plasma, Balb/C mice, single dose PO 40 mg/kg

## CC[C@H](O)c1csc(C(=O)c2c[nH]c3cc(F)ccc23)n1 [ARI-164, (S)-(6-Fluoro-1H-indol-3-yl)(4-(1-hydroxypropyl)thiazol-2-yl)methanone]
[1]; ARI-164 alone, 40 mg/kg i.p.
  effect on tumor growth (in words): delay tumor growth
[1]; combination with anti-PD-1 antibody, study day 31
  tumor growth inhibition (in words): statistically significant delta in tumor growth inhibition
[1]; [9]
  TGI (%): 45.3%
[2]; combination with anti-PD-1 antibody, study day 30
  tumor inhibition (in words): significant tumor inhibition
[2]; [9]
  TGI (%): 57.2%
[3]; combination with anti-PD-1 antibody, study day 28
  tumor inhibition (in words): significant tumor inhibition
[3]; [9]
  TGI (%): 28.1%
[4]; LL/2 model (FIG. 21F), combination with anti-PD-1 antibody, study day 32
  tumor inhibition (in words): tumor inhibition
[4]; LL/2 model, intraperitoneal, anti-PD-1 10 mg/kg BIW, ARI-164 40 mg/kg QD
  TGI (%): 42.5%
[5]; combination with anti-PD-1 antibody, study day 27
  tumor inhibition (in words): significant tumor inhibition
[5]; intraperitoneal, anti-PD-1 10 mg/kg BIW, ARI-164 160 mg/kg QD
  TGI (%): 18.8%
[6]; combination with anti-PD-1 antibody, study day 55
  tumor inhibition (in words): increased tumor inhibition
[6]; [9]
  TGI (%): 61.1%
[7]; combination with anti-PD-1 antibody, study day 24
  tumor inhibition (in words): significant tumor inhibition
[7]; [9]
  TGI (%): 46.9%
[8]; [10]
  AUC: 3010 ng·h/mL
  bioavailability: 15.1%
[8]; [11]
  Cmax: 1870 ng/mL
  Tmax: 0.5 h
[8]; Balb/C, mouse, plasma, mice, single 40 mg/kg oral dose, from mean profile, read-out: AUC0-t
  AUC(0-t): 3010 ng·h/mL
[8]; Balb/C, mouse, plasma, mice, single 40 mg/kg oral dose, from mean profile, read-out: AUC0-∞
  AUC(0-inf): 3020 ng·h/mL
[8]; Balb/C, mouse, plasma, mice, single 40 mg/kg oral dose, from mean profile, read-out: t1/2 (converted)
  half-life: 1.4 h
[8]; [12]
  half-life: 1.4 h
[8]; [13]
  plasma concentration at 0.083 hr: 206.7
  plasma concentration at 0.25 hr: 1623
  plasma concentration at 0.5 hr: 1867
  plasma concentration at 1 hr: 1193
  plasma concentration at 2 hr: 506
  plasma concentration at 4 hr: 82.8
  plasma concentration at 8 hr: 7.1
  plasma concentration at 12 hr: 6.5
[8]; mice, single 40 mg/kg oral dose, individual mouse (M1-M3)
  plasma concentration at 24 hr: BLQ
[8]; [14]
  plasma concentration at 0.083 hr: 330 and 202 and 88
  plasma concentration at 0.25 hr: 1780 and 1740 and 1350
  plasma concentration at 0.5 hr: 1960 and 2020 and 1620
  plasma concentration at 1 hr: 1050 and 1600 and 930
  plasma concentration at 2 hr: 463 and 572 and 482
  plasma concentration at 4 hr: 101 and 79.3 and 68.2
  plasma concentration at 8 hr: 7.1 and BLQ (2×)
  plasma concentration at 12 hr: 7.5 and BLQ and 5.6

## CC[C@H](N)c1csc(C(=O)c2c[nH]c3cc(F)ccc23)n1 [ARI-186, (S)-(4-(1-aminopropyl)thiazol-2-yl)(6-fluoro-1H-indol-3-yl)methanone]
[8]; Balb/C mice, single dose IP 40 mg/kg (value marked **)
  F*: 81.4** %
[8]; Balb/C mice, single dose PO 10 mg/kg
  F*: 63.0%
[8]; Balb/C mice, single dose PO 40 mg/kg (value marked **)
  F*: 75.7** %
[8]; [10]
  AUC: 73900 ng·h/mL
  bioavailability: 75.7%
[8]; [12]
  half-life: ~7.6 h
[8]; [15]
  improvement in AUC over ARI-164 (fold): 24.6 ×
  improvement in oral bioavailability over ARI-164 (fold): 5.0 ×
[8]; [16]
  Cmax: 6230 ng/mL
  MRT last: 11.2 h
  Tmax: 0.5 h
[8]; mouse, plasma, Balb/C mice, single dose IP 40 mg/kg, read-out: AUClast
  AUC(0-t): 79400 ng·h/mL
[8]; [17]
  Cmax: 2130 ng/mL
  MRT inf: 9.55 h
  MRT last: 6.99 h
  Tmax: 0.083 h
  clearance: 6.18 mL/min/kg
[8]; mouse, plasma, Balb/C mice, single dose IV 5 mg/kg, read-out: AUCinf
  AUC(0-inf): 13500 ng·h/mL
[8]; mouse, plasma, Balb/C mice, single dose IV 5 mg/kg, read-out: AUClast
  AUC(0-t): 12200 ng·h/mL
[8]; mouse, plasma, Balb/C mice, single dose IV 5 mg/kg, read-out: T1/2 (converted)
  half-life: 7.62 h
[8]; mouse, plasma, Balb/C mice, single dose IV 5 mg/kg, read-out: Vss
  Vd: 3.55 L/kg
[8]; [18]
  Cmax: 1380 ng/mL
  MRT inf: 8.21 h
  MRT last: 6.76 h
  Tmax: 2 h
[8]; mouse, plasma, Balb/C mice, single dose PO 10 mg/kg, read-out: AUCinf
  AUC(0-inf): 17000 ng·h/mL
[8]; mouse, plasma, Balb/C mice, single dose PO 10 mg/kg, read-out: AUClast
  AUC(0-t): 16100 ng·h/mL
[8]; mouse, plasma, Balb/C mice, single dose PO 10 mg/kg, read-out: T1/2 (converted)
  half-life: 5.56 h
[8]; [19]
  Cmax: 5000 ng/mL
  MRT last: 9.35 h
  Tmax: 2 h
[8]; mouse, plasma, Balb/C mice, single dose PO 40 mg/kg, read-out: AUClast
  AUC(0-t): 73900 ng·h/mL
